{
  "source": "PubChem BioAssay (NCI)",
  "assay_in_all_cases": "inhibition of tumour cell growth, NCI panel, 48 h",
  "key": {"786-0 renal": {"test_system": "786-0 renal"}, "A498 renal": {"test_system": "A498 renal"}, "A549 NSCLC": {"test_system": "A549 NSCLC"}, "ACHN renal": {"test_system": "ACHN renal"}, "BT-549 breast": {"test_system": "BT-549 breast"}, "CAKI-1 renal": {"test_system": "CAKI-1 renal"}, "CCRF-CEM leukemia": {"test_system": "CCRF-CEM leukemia"}, "COLO 205 colon": {"test_system": "COLO 205 colon"}, "DU-145 prostate": {"test_system": "DU-145 prostate"}, "EKVX NSCLC": {"test_system": "EKVX NSCLC"}, "HCC-2998 colon": {"test_system": "HCC-2998 colon"}, "HCT-116 colon": {"test_system": "HCT-116 colon"}, "HCT-15 colon": {"test_system": "HCT-15 colon"}, "HL-60(TB) leukemia": {"test_system": "HL-60(TB) leukemia"}, "HOP-62 NSCLC": {"test_system": "HOP-62 NSCLC"}, "HOP-92 NSCLC": {"test_system": "HOP-92 NSCLC"}, "HS 578T breast": {"test_system": "HS 578T breast"}, "HT29 colon": {"test_system": "HT29 colon"}, "IGROV1 ovarian": {"test_system": "IGROV1 ovarian"}, "K-562 leukemia": {"test_system": "K-562 leukemia"}, "KM12 colon": {"test_system": "KM12 colon"}, "LOX IMVI melanoma": {"test_system": "LOX IMVI melanoma"}, "MCF7 breast": {"test_system": "MCF7 breast"}, "MDA-MB-231 breast": {"test_system": "MDA-MB-231 breast"}, "MDA-MB-435": {"test_system": "MDA-MB-435"}, "MDA-N": {"test_system": "MDA-N"}, "MOLT-4 leukemia": {"test_system": "MOLT-4 leukemia"}, "NCI-H226 lung": {"test_system": "NCI-H226 lung"}, "NCI-H23 lung": {"test_system": "NCI-H23 lung"}, "NCI-H460 lung": {"test_system": "NCI-H460 lung"}, "NCI-H522 lung": {"test_system": "NCI-H522 lung"}, "NCI/ADR-RES ovarian": {"test_system": "NCI/ADR-RES ovarian"}, "OVCAR-3 ovarian": {"test_system": "OVCAR-3 ovarian"}, "OVCAR-4 ovarian": {"test_system": "OVCAR-4 ovarian"}, "OVCAR-5 ovarian": {"test_system": "OVCAR-5 ovarian"}, "OVCAR-8 ovarian": {"test_system": "OVCAR-8 ovarian"}, "PC-3 prostate": {"test_system": "PC-3 prostate"}, "RPMI-8226 leukemia": {"test_system": "RPMI-8226 leukemia"}, "SF-268 CNS": {"test_system": "SF-268 CNS"}, "SF-295 CNS": {"test_system": "SF-295 CNS"}, "SF-539 CNS": {"test_system": "SF-539 CNS"}, "SK-MEL-2 melanoma": {"test_system": "SK-MEL-2 melanoma"}, "SK-MEL-28 melanoma": {"test_system": "SK-MEL-28 melanoma"}, "SK-MEL-5 melanoma": {"test_system": "SK-MEL-5 melanoma"}, "SK-OV-3 ovarian": {"test_system": "SK-OV-3 ovarian"}, "SN12C renal": {"test_system": "SN12C renal"}, "SNB-19 CNS": {"test_system": "SNB-19 CNS"}, "SNB-75 CNS": {"test_system": "SNB-75 CNS"}, "SR leukemia": {"test_system": "SR leukemia"}, "SW-620 colon": {"test_system": "SW-620 colon"}, "T-47D breast": {"test_system": "T-47D breast"}, "TK-10 renal": {"test_system": "TK-10 renal"}, "U251 CNS": {"test_system": "U251 CNS"}, "UACC-257 melanoma": {"test_system": "UACC-257 melanoma"}, "UACC-62 melanoma": {"test_system": "UACC-62 melanoma"}, "UO-31 renal": {"test_system": "UO-31 renal"}},
  "note": "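Step 1: Grow cells in 96-well plates. Step 2: Expose to compound for 48 hours at 5 concentrations. Step 3: Interpolate endpoints linearly; if unreached, use highest concentration. At the TGI there is no net growth.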",
  "data": [
    {"smiles": "COC(=O)CN(CC(=O)NCCCBr)C1CCCCC1N(CC(=O)OC)CC(=O)OC", "note": "(stereo unspecified)", "values": [
      {"measurement": "TGI", "setting": "786-0 renal", "value": "> 100", "unit": "µM"},
      {"measurement": "TGI", "setting": "A498 renal", "value": "> 100", "unit": "µM"},
      {"measurement": "TGI", "setting": "A549 NSCLC", "value": "> 100", "unit": "µM"},
      {"measurement": "TGI", "setting": "ACHN renal", "value": "> 100", "unit": "µM"},
      {"measurement": "TGI", "setting": "BT-549 breast", "value": "> 100", "unit": "µM"},
      {"measurement": "TGI", "setting": "CAKI-1 renal", "value": "> 100", "unit": "µM"},
      {"measurement": "TGI", "setting": "CCRF-CEM leukemia", "value": "> 100", "unit": "µM"},
      {"measurement": "TGI", "setting": "COLO 205 colon", "value": "> 100", "unit": "µM"},
      {"measurement": "TGI", "setting": "DU-145 prostate", "value": "> 100", "unit": "µM"},
      {"measurement": "TGI", "setting": "EKVX NSCLC", "value": "> 100", "unit": "µM"},
      {"measurement": "TGI", "setting": "HCC-2998 colon", "value": "> 100", "unit": "µM"},
      {"measurement": "TGI", "setting": "HCT-116 colon", "value": "> 100", "unit": "µM"},
      {"measurement": "TGI", "setting": "HCT-15 colon", "value": "> 100", "unit": "µM"},
      {"measurement": "TGI", "setting": "HL-60(TB) leukemia", "value": "> 100", "unit": "µM"},
      {"measurement": "TGI", "setting": "HOP-62 NSCLC", "value": "> 100", "unit": "µM"},
      {"measurement": "TGI", "setting": "HOP-92 NSCLC", "value": "> 100", "unit": "µM"},
      {"measurement": "TGI", "setting": "HS 578T breast", "value": "> 100", "unit": "µM"},
      {"measurement": "TGI", "setting": "HT29 colon", "value": "> 100", "unit": "µM"},
      {"measurement": "TGI", "setting": "IGROV1 ovarian", "value": "> 100", "unit": "µM"},
      {"measurement": "TGI", "setting": "K-562 leukemia", "value": "> 100", "unit": "µM"},
      {"measurement": "TGI", "setting": "KM12 colon", "value": "> 100", "unit": "µM"},
      {"measurement": "TGI", "setting": "LOX IMVI melanoma", "value": "> 100", "unit": "µM"},
      {"measurement": "TGI", "setting": "MCF7 breast", "value": "> 100", "unit": "µM"},
      {"measurement": "TGI", "setting": "MDA-MB-231 breast", "value": "> 100", "unit": "µM"},
      {"measurement": "TGI", "setting": "MDA-MB-435", "value": "> 100", "unit": "µM"},
      {"measurement": "TGI", "setting": "MDA-N", "value": "> 100", "unit": "µM"},
      {"measurement": "TGI", "setting": "MOLT-4 leukemia", "value": "> 100", "unit": "µM"},
      {"measurement": "TGI", "setting": "NCI-H226 lung", "value": "> 100", "unit": "µM"},
      {"measurement": "TGI", "setting": "NCI-H23 lung", "value": "> 100", "unit": "µM"},
      {"measurement": "TGI", "setting": "NCI-H460 lung", "value": "> 100", "unit": "µM"},
      {"measurement": "TGI", "setting": "NCI-H522 lung", "value": "> 100", "unit": "µM"},
      {"measurement": "TGI", "setting": "NCI/ADR-RES ovarian", "value": "> 100", "unit": "µM"},
      {"measurement": "TGI", "setting": "OVCAR-3 ovarian", "value": "> 100", "unit": "µM"},
      {"measurement": "TGI", "setting": "OVCAR-4 ovarian", "value": "> 100", "unit": "µM"},
      {"measurement": "TGI", "setting": "OVCAR-5 ovarian", "value": "> 100", "unit": "µM"},
      {"measurement": "TGI", "setting": "OVCAR-8 ovarian", "value": "> 100", "unit": "µM"},
      {"measurement": "TGI", "setting": "PC-3 prostate", "value": "> 100", "unit": "µM"},
      {"measurement": "TGI", "setting": "RPMI-8226 leukemia", "value": "> 100", "unit": "µM"},
      {"measurement": "TGI", "setting": "SF-268 CNS", "value": "> 100", "unit": "µM"},
      {"measurement": "TGI", "setting": "SF-295 CNS", "value": "> 100", "unit": "µM"},
      {"measurement": "TGI", "setting": "SF-539 CNS", "value": "> 100", "unit": "µM"},
      {"measurement": "TGI", "setting": "SK-MEL-2 melanoma", "value": "> 100", "unit": "µM"},
      {"measurement": "TGI", "setting": "SK-MEL-28 melanoma", "value": "> 100", "unit": "µM"},
      {"measurement": "TGI", "setting": "SK-MEL-5 melanoma", "value": "> 100", "unit": "µM"},
      {"measurement": "TGI", "setting": "SK-OV-3 ovarian", "value": "> 100", "unit": "µM"},
      {"measurement": "TGI", "setting": "SN12C renal", "value": "> 100", "unit": "µM"},
      {"measurement": "TGI", "setting": "SNB-19 CNS", "value": "> 100", "unit": "µM"},
      {"measurement": "TGI", "setting": "SNB-75 CNS", "value": 64.9, "unit": "µM"},
      {"measurement": "TGI", "setting": "SR leukemia", "value": "> 100", "unit": "µM"},
      {"measurement": "TGI", "setting": "SW-620 colon", "value": "> 100", "unit": "µM"},
      {"measurement": "TGI", "setting": "T-47D breast", "value": "> 100", "unit": "µM"},
      {"measurement": "TGI", "setting": "TK-10 renal", "value": "> 100", "unit": "µM"},
      {"measurement": "TGI", "setting": "U251 CNS", "value": "> 100", "unit": "µM"},
      {"measurement": "TGI", "setting": "UACC-257 melanoma", "value": "> 100", "unit": "µM"},
      {"measurement": "TGI", "setting": "UACC-62 melanoma", "value": "> 100", "unit": "µM"},
      {"measurement": "TGI", "setting": "UO-31 renal", "value": "> 100", "unit": "µM"}
    ]}
  ]
}
